TGI data for 14 molecules are collected here from PubChem BioAssay (NCI).

Molecules are shown by their SMILES.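 How tested: cells in 96-well plates exposed to compound for 48 hours at five concentrations. TGI denotes the concentration required for complete inhibition of growth.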

Among the test systems are TK-10 renal; HCC-2998 colon; OVCAR-5 ovarian; SW-620 colon; OVCAR-8 ovarian; SR leukemia; U251 CNS; RPMI-8226 leukemia; K-562 leukemia; SF-268 CNS.
Holding throughout (test): DTP human tumour cell line panel, 48 h

Regarding `CC(=O)OCC1OC(SC2=N/C(=C\c3ccc(Br)s3)C(=O)N2CN2CCOCC2)C(OC(C)=O)C(OC(C)=O)C1OC(C)=O` (centres undefined), the TGI in the test with TK-10 renal stood at 34.8 µM; with HCC-2998 colon, 38.7 µM; in the test with OVCAR-5 ovarian, 72.1 µM; with SW-620 colon it was 38.9 µM; in the test with OVCAR-8 ovarian it was 37 µM; in the test on SR leukemia, 34.8 µM. For the same molecule, the TGI was 32.2 µM in the test with U251 CNS, 27 µM in the test on RPMI-8226 leukemia, 45.7 µM with K-562 leukemia and 81.9 µM in the test with SF-268 CNS.
For the molecule `Cc1cc(-c2nc3cc(F)ccc3s2)ccc1NC(=O)[C@@H](N)CCCCN`, the TGI was found to be 0.903 µM in the test on TK-10 renal; 6.85 µM in the test on HCC-2998 colon; 17 µM in the test with OVCAR-5 ovarian; 6.04 µM in the test on SW-620 colon; 11.2 µM with OVCAR-8 ovarian; 3.52 µM in the test on SR leukemia. The TGI in the test with U251 CNS is 3.89 µM; with RPMI-8226 leukemia, 4.88 µM; in the test on K-562 leukemia it was 5.21 µM; in the test on SF-268 CNS it was 22.6 µM.
As for `COP(=O)(OC)C(Cc1cn(C(C)=O)c2ccccc12)C(=O)O` (centres undefined), the TGI in the test with TK-10 renal, in the test on HCC-2998 colon, in the test on OVCAR-5 ovarian, in the test with SW-620 colon, in the test with OVCAR-8 ovarian and in the test on SR leukemia was > 100 µM each time. The TGI in the test on U251 CNS, with RPMI-8226 leukemia and in the test on K-562 leukemia was > 100 µM each time.
As to `O=c1[nH]nc(-c2ccccc2)n1/N=C\c1ccccc1`, the TGI with TK-10 renal, with HCC-2998 colon, in the test on OVCAR-5 ovarian, with SW-620 colon, in the test with OVCAR-8 ovarian and in the test on SR leukemia was > 100 µM in each case. The TGI in the test on U251 CNS, in the test with RPMI-8226 leukemia, in the test on K-562 leukemia and in the test with SF-268 CNS was > 100 µM each time.
Consider `O=C1C[C@@H](C(=O)OCc2ccccc2)NC(=O)C[C@@H](C(=O)OCc2ccccc2)NC(=O)C[C@@H](C(=O)OCc2ccccc2)N1`, for which the TGI in the test on TK-10 renal was 73.6 µM; with HCC-2998 colon, > 100 µM; in the test with OVCAR-5 ovarian, > 100 µM; in the test on SW-620 colon, > 100 µM; in the test on OVCAR-8 ovarian it was > 100 µM; with SR leukemia it was 20.7 µM. Further, the concentration for total growth inhibition (TGI) was > 100 µM in the test with U251 CNS, > 100 µM in the test with RPMI-8226 leukemia, 21.8 µM with K-562 leukemia and 85.8 µM in the test with SF-268 CNS.
Consider `CCCC(=O)NC(Nc1ccc(S(=O)(=O)Nc2cc(C)on2)cc1)(C(=O)OCC)C(F)(F)F` (centres undefined), for which the total growth inhibition concentration (TGI) in the test on TK-10 renal, with HCC-2998 colon, with OVCAR-5 ovarian, in the test with SW-620 colon, with OVCAR-8 ovarian and in the test with SR leukemia was > 100 µM in each case. The TGI in the test on U251 CNS, in the test with RPMI-8226 leukemia, in the test on K-562 leukemia and with SF-268 CNS was > 100 µM each time.
On to `Cc1csc(NC23CC4CC(CC(C4)C2)C3)[n+]1C(P(=O)([O-])O)P(=O)(O)O` (centres undefined), for which the TGI in the test on TK-10 renal, in the test on HCC-2998 colon, in the test on OVCAR-5 ovarian, with SW-620 colon, with OVCAR-8 ovarian and with SR leukemia was > 100 µM throughout. Moreover, the TGI in the test with U251 CNS, in the test on RPMI-8226 leukemia, in the test with K-562 leukemia and in the test with SF-268 CNS was > 100 µM each time.
Consider `CC(=O)NCCC1CN(C(=O)/C=C/I)c2ccccc21` (centres undefined), for which the concentration for total growth inhibition (TGI) in the test with TK-10 renal is 3.63 µM; in the test with HCC-2998 colon it was 29.6 µM; in the test with OVCAR-5 ovarian, 29.3 µM; with SW-620 colon, 4.53 µM; in the test with OVCAR-8 ovarian it was 25.4 µM; in the test on SR leukemia, > 27.4 µM. Also, the TGI was 24.2 µM with U251 CNS, > 60.5 µM in the test on RPMI-8226 leukemia, > 100 µM in the test on K-562 leukemia and 23.5 µM with SF-268 CNS.
Turning to `COC(=O)C1(Cc2ccc3c(c2)CCC3)Cc2ccccc2C1O` (centres undefined), the total growth inhibition concentration (TGI) was 53.1 µM in the test on TK-10 renal; 31.9 µM in the test on HCC-2998 colon; 80 µM in the test on OVCAR-5 ovarian; 43.5 µM with SW-620 colon; 36 µM in the test on OVCAR-8 ovarian; 75.9 µM with SR leukemia. The TGI in the test on U251 CNS turned out to be 31.1 µM; in the test on RPMI-8226 leukemia, 80.4 µM; with K-562 leukemia it was 40.5 µM; with SF-268 CNS, 41.6 µM.
With `O=c1cc(N2CCCC2)[nH]c(=O)n1Cc1ccccc1`, the TGI in the test on TK-10 renal, with HCC-2998 colon, in the test on OVCAR-5 ovarian, in the test with SW-620 colon, in the test with OVCAR-8 ovarian and with SR leukemia was > 100 µM in each case. The TGI in the test on U251 CNS, with RPMI-8226 leukemia and with K-562 leukemia was > 100 µM throughout.
As to `Cc1ccc(/C(O)=C/c2nc3ccccc3sc2=O)c(C)c1`, the total growth inhibition concentration (TGI) in the test on TK-10 renal was > 100 µM; in the test on HCC-2998 colon, > 100 µM; in the test with OVCAR-5 ovarian, > 100 µM; with OVCAR-8 ovarian, > 100 µM; in the test with SR leukemia it was 75.8 µM; in the test on U251 CNS, > 100 µM. Also, the TGI was 77.6 µM with RPMI-8226 leukemia, > 100 µM in the test on K-562 leukemia and > 100 µM in the test on SF-268 CNS.
Consider `Cc1ccc(OCC2OC(n3cnc4nc(N)nc(Cl)c43)CC2Oc2ccc(C)cc2)cc1` (centres undefined), for which the TGI in the test with TK-10 renal was > 100 µM; with HCC-2998 colon it was 33.6 µM; in the test with OVCAR-5 ovarian, 39.7 µM; in the test with SW-620 colon it was > 100 µM; in the test with OVCAR-8 ovarian, 50 µM; in the test on SR leukemia it was > 100 µM. For the same molecule, the TGI in the test on U251 CNS was > 100 µM; in the test on RPMI-8226 leukemia, 56.5 µM; with SF-268 CNS, 44.6 µM.
Turning to `O=S(Nc1ccccc1)c1ccc(N2CCOCC2)cc1` (centres undefined), the TGI in the test on TK-10 renal, in the test with HCC-2998 colon, in the test on SW-620 colon, in the test with OVCAR-8 ovarian, with SR leukemia and with U251 CNS was > 100 µM each time. Further, the TGI with RPMI-8226 leukemia, with K-562 leukemia and with SF-268 CNS was > 100 µM each time.
For `COC(OC)[C@@H]1OC[C@H](n2cnc3c(N)ncnc32)[C@H]1O`, the TGI in the test with TK-10 renal, in the test with HCC-2998 colon, in the test on OVCAR-5 ovarian, in the test on SW-620 colon, in the test with SR leukemia and in the test with U251 CNS was > 100 µM in each case. Further, the TGI with RPMI-8226 leukemia, in the test on K-562 leukemia and with SF-268 CNS was > 100 µM in each case.
